Article PMC9866191, “Novel 9-Benzylaminoacridine Derivatives as Dual Inhibitors of Phosphodiesterase 5 and Topoisomerase II for the Treatment of Colon Cancer” (Molecules, 2023)
“Also recorded” adds a separate entry of the source.

How the values were obtained:
HCT-116 cells [1] = experiment: Annexin-V/PI apoptosis assay; format: cell-based, human; conditions: 10 µM, 24 h
Procedure: For the same set of compounds, the apoptosis-inducing effects in HCT-116 cells were assessed using Annexin-V/PI double staining at 10 µM (Figure 3).
The number of apoptotic/necrotic cells was analyzed using flow cytometry following the manufacturer’s protocol. Markers were assessed using a FACS-Caliburflow cytometer (Beckman Coulter, Taipei, Taiwan) and analyzed using WinMDI 2.8 software.
(§1) Figure 3 Apoptosis induction and cell cycle effects of compounds in HCT-116 cells. (A) The apoptotic population of HCT-116 cells was analyzed using flow cytometry after treatment with 10 µM of the test compound for 24 h followed by Annexin V/propidium iodide (PI) staining. (B) After treatment with compound concentrations of 10 µM for 24 h, cells were fixed, stained with propidium iodide (PI), and analyzed for cell cycle distribution. Results are expressed as the means ± SD from three independent experiments (* p < 0.05 and ** p < 0.01 *** p < 0.001, control versus compound).

human DNA Topo II = biological target: T1, human DNA Topo II (Homo sapiens, UniProt P11388); experiment: Topo II-mediated relaxation of supercoiled pHOT1 plasmid DNA; format: biochemical; conditions: for DNA band pattern in Topo II relaxation assay: at 1 and 5 µM doses, similar to doxorubicin
T1 construct: purchased Topogen, Columbus, OH, USA
Procedure: Consequently, the effects of the synthesized compounds on Topo II activity were evaluated with a cell-free assay using a purified human DNA Topo II-protein-mediated relaxation of the negatively supercoiled pHOT1 plasmid DNA [40]. […] Two Topo II inhibitors (doxorubicin and etoposide) were used as positive controls.
The reaction was terminated by adding 2 μL of 10% SDS, followed by 2.5 μL of proteinase K (50 μg/mL) to digest the bound protein. The system was incubated at 37 °C for 15 min. The DNA product was finally analyzed using electrophoresis on a vertical 1.5% agarose gel at 2 volts/cm in 1 × TAE buffer and photographed using the Eagle Eye II system (Stratagene, La Jolla, CA, USA).
Figure 2 Effects of compounds on topoisomerase II activity. Effects on Topo II-mediated relaxation of supercoiled pHOT1 plasmid DNA in a cell-free system. Positive control: etoposide (10 µM); doxorubicin (5 µM) used as Topo II poison (induction of linear DNA); DNA relaxation: plasmid DNA + topo IIα + solvent control. Nick, nicked DNA; Sc, supercoiled DNA; Lin, linear DNA.

SF-268 = experiment: NCI-60 one-dose screen; format: cell-based; conditions: Homo sapiens; SF-268, CNS Cancer panel; single dose 10^−5 M; read-out: Growth inhibition %
HCT-116 cells [2] = experiment: Cell cycle analysis (PI, flow cytometry); format: cell-based, human; conditions: 10 µM, 24 h, PI staining
Procedure: To analyze cell cycle changes, cells permeated at 1 × 10^6 × cells/mL were trypsinized and diluted and then fixed in 70% ethanol at 4 °C. Cell cycle arrest in HCT-116 cells following compound exposure was accomplished using propidium iodide (Sigma-Aldrich, St. Louis, MI, USA). The markers were then assessed using a FACS-Caliburflow cytometer (Beckman Coulter, Taipei, Taiwan) and analyzed using WinMDI software. […]
as §1

HCT-116 = experiment: MTT cell proliferation assay, HCT-116; conditions: for % Inhibition at 10 µM: 72 h MTT, means ± SD; for IC50: read-out: IC50 μM, 72 h MTT, means ± SD, three experiments
Procedure: In the MTT assay, 96-well culture plates were used. A total of 7 × 10^4 cells per well were seeded, and test materials were added to the cells at various concentrations [47, 48]. Human cancer and non-cancer cell lines were purchased commercially from the American Type Culture Collection (ATCC). After 72 h, the cytotoxicity of the compounds and paclitaxel (as a positive control group) was detected using the MTT method (thiazolyl blue tetrazolium bromide, Sigma-M2128). Absorbance values at 570 and 620 nm (OD = OD570–OD620) were measured using an ELISA reader (Anthos Labtec Instruments, Salzburg, Austria).

T1 sequence (P11388 whole entry): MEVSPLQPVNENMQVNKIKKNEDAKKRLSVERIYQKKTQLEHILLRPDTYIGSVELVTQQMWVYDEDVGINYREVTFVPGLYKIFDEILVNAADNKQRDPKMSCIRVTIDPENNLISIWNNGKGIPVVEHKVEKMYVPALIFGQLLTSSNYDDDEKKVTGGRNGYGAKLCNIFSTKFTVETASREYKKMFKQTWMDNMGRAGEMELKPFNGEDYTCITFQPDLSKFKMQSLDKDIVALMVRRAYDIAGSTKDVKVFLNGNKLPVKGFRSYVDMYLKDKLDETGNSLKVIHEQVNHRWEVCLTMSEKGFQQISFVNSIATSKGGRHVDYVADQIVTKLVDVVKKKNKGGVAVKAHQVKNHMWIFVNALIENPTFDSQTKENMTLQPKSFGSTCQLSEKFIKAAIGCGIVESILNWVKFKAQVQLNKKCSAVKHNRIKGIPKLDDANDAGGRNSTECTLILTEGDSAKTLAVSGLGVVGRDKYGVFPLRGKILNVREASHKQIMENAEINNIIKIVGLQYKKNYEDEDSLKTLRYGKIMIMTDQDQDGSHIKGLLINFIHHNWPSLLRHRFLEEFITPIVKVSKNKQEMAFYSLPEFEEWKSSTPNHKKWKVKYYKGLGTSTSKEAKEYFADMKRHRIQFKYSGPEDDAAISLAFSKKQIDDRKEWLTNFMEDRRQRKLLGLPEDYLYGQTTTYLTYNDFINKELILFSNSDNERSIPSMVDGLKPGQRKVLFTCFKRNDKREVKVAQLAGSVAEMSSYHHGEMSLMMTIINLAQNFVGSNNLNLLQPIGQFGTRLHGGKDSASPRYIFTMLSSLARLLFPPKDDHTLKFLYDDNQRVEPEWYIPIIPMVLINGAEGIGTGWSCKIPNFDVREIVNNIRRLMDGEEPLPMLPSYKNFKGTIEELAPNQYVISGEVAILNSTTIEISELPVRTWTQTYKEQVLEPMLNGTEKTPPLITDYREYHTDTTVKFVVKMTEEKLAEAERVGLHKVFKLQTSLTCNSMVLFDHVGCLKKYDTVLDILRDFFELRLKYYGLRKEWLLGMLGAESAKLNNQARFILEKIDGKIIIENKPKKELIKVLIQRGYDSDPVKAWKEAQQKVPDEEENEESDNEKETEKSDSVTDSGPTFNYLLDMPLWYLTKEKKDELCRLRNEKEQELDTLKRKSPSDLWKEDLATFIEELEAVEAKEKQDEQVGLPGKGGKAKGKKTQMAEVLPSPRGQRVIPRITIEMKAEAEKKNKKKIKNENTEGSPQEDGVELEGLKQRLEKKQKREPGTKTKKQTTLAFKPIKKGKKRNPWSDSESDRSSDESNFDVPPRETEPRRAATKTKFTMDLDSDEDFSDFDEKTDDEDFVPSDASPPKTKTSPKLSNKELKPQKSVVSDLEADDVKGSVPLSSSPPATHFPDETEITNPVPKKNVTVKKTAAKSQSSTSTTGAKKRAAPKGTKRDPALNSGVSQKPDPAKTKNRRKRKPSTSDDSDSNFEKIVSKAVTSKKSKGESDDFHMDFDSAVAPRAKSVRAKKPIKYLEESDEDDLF

Row | Structure (SMILES) | induction of apoptosis (HCT-116 cells [1]) | DNA band pattern in Topo II relaxation assay (human DNA Topo II) | inhibition at 10 µM (SF-268) | effect on cell cycle (HCT-116 cells [2]) | % Inhibition at 10 µM (HCT-116) | IC50 (HCT-116) | concentration at which Topo II inhibition (increase of supercoiled DNA) is shown (human DNA Topo II; cell-free relaxation assay, gel)
1 | COc1ccc2nc3ccccc3c(NCc3ccccc3)c2c1 [Compound 25, Benzyl-(2-methoxyacridin-9-yl)-amine] | 20%–50% | larger base pair band than nicked DNA | 55.8% | cell cycle arrest in the G2/M phase; also recorded: increased the number of cells in the S phase and G2/M phase | 59.62 ± 2.66% | 7.43 ± 0.77 µM | –
2 | COc1ccc2nc3ccccc3c(NCc3ccc(F)cc3)c2c1 [Compound 28, (4-Fluorobenzyl)-(2-methoxyacridin-9-yl)-amine] | less than 20% | – | 65.4% | increased the number of cells in the S phase and G2/M phase | 75.53 ± 2.52% | 2.51 ± 0.53 µM | 1 µM
3 | Cc1ccc2nc3ccccc3c(NCc3ccccc3)c2c1 [Compound 30, Benzyl-(2-methylacridin-9-yl)-amine] | less than 20% | larger base pair band than nicked DNA | 31% | cell cycle arrest in the G2/M phase | 68.46 ± 1.55% | 5.78 ± 0.11 µM | –
4 | Cc1ccc2nc3ccccc3c(NCc3ccc(Cl)cc3)c2c1 [Compound 31, (4-Chlorobenzyl)-(2-methyl-acridin-9-yl)-amine] | 20%–50% | larger base pair band than nicked DNA | 20.9% | arrested the cell cycle in the S phase | 55.53 ± 1.69% | 7.95 ± 0.65 µM | –
